According to ChEMBL document CHEMBL4184246 (Bioorg Med Chem Lett, 2018):
Calls of active or inactive are those of the source. The calls are words filed in the database; no cut-off is given here.

Legend:
Assay type in all cases: functional, cell-based
[1] = system: A549; assay: Growth inhibition of human A549 cells incubated for 6 days in presence of 400 U/ml IFNalpha by MTS assay; settings: A549, 144 h
[2] = system: A549; assay: Growth inhibition of human A549 cells incubated for 6 days in absence of 400 U/ml IFNalpha by MTS assay; settings: A549, 144 h
[3] = system: OVCAR-3; assay: Growth inhibition of human OVCAR3 cells incubated for 7 days in presence of 400 U/ml IFNalpha by MTS assay; settings: OVCAR-3, 168 h
[4] = system: OVCAR-3; assay: Growth inhibition of human OVCAR3 cells incubated for 7 days in absence of 400 U/ml IFNalpha by MTS assay; settings: OVCAR-3, 168 h
[5] = system: A549; assay: Induction of apoptosis in human A549 cells assessed as increase in PARP cleavage at 14 uM incubated for 4 days in absence of 200 U/ml IFNalpha by Western blot analysis
[6] = system: A549; assay: Increase in DR5 protein expression in human A549 cells at 14 uM incubated for 4 days in absence of 200 U/ml IFNalpha by Western blot analysis
[7] = system: A549; assay: Increase in DR5 protein expression in human A549 cells at 14 uM incubated for 4 days in presence of 200 U/ml IFNalpha by Western blot analysis
[8] = system: A549; assay: Induction of apoptosis in human A549 cells assessed as increase in PARP cleavage at 14 uM incubated for 4 days in presence of 200 U/ml IFNalpha by Western blot analysis
[9] = system: A549; assay: Growth inhibition of human A549 cells at 14 uM incubated for 4 days in presence of 200 U/ml IFNalpha and 30 nM 14-3-3zeta siRNA by MTS assay
[10] = system: A549; assay: Growth inhibition of human A549 cells at 14 uM incubated for 4 days in presence of 200 U/ml IFNalpha and in absence of 30 nM 14-3-3zeta siRNA by MTS assay
[11] = system: A549; assay: Increase in DR5 protein expression in human A549 cells at 13 uM incubated for 4 days in absence of 200 U/ml IFNalpha by Western blot analysis
[12] = system: A549; assay: Increase in DR5 protein expression in human A549 cells at 13 uM incubated for 4 days in presence of 200 U/ml IFNalpha by Western blot analysis
[13] = system: A549; assay: Induction of apoptosis in human A549 cells assessed as increase in PARP cleavage at 13 uM incubated for 4 days in absence of 200 U/ml IFNalpha by Western blot analysis
[14] = system: A549; assay: Induction of apoptosis in human A549 cells assessed as increase in PARP cleavage at 13 uM incubated for 4 days in presence of 200 U/ml IFNalpha by Western blot analysis
[15] = system: A549; assay: Growth inhibition of human A549 cells at 13 uM incubated for 4 days in presence of 200 U/ml IFNalpha and 30 nM 14-3-3zeta siRNA by MTS assay
[16] = system: A549; assay: Growth inhibition of human A549 cells at 13 uM incubated for 4 days in presence of 200 U/ml IFNalpha and in absence of 30 nM 14-3-3zeta siRNA by MTS assay

EC50 [1] [µM]	EC50 [2] [µM]	EC50 [3] [µM]	EC50 [4] [µM]	Structure (SMILES)	Activity [5]	Activity [6]	Activity [7]	Activity [8]	growth inhibition (GI) [9]	growth inhibition (GI) [10]	Activity [11]	Activity [12]	Activity [13]	Activity [14]	growth inhibition (GI) [15]	growth inhibition (GI) [16]
27	33	18	29	COC[C@H]1CC[C@@H]2/C1=C\[C@@]1(C)CCC(C(C)C)=C1[C@@H](O[C@H]1O[C@@H]3COC(C)(C)O[C@H]3[C@H](O)[C@H]1O)[C@H](O)[C@@H]2C	inactive	–	–	–	–	–	–	–	–	–	–	–
11	> 200	3.3	> 200	COC[C@@]1(O)CC[C@@H]2/C1=C\[C@@]1(C)CCC(C(C)C)=C1[C@@H](O[C@H]1O[C@@H]3COC(C)(C)O[C@H]3[C@H](O)[C@H]1O)[C@H](O)[C@@H]2C	–	Active	Active	Active	inactive	Active	–	–	–	–	–	–
> 40	170	> 40	140	COC[C@@]1(OC)CC[C@@H]2/C1=C\[C@@]1(C)CCC(C(C)C)=C1[C@@H](O[C@H]1O[C@@H]3COC(C)(C)O[C@H]3[C@H](O)[C@H]1O)[C@H](O)[C@@H]2C	–	–	–	–	–	–	–	–	–	–	–	–

Structure (SMILES)	EC50 [1] [µM]	EC50 [2] [µM]	EC50 [3] [µM]	EC50 [4] [µM]	Activity [5]	Activity [6]	Activity [7]	Activity [8]	growth inhibition (GI) [9]	growth inhibition (GI) [10]	Activity [11]	Activity [12]	Activity [13]	Activity [14]	growth inhibition (GI) [15]	growth inhibition (GI) [16]
COC[C@H]1O[C@H](O[C@@H]2C3=C(C(C)C)CC[C@]3(C)/C=C3\[C@@H](CC[C@]3(O)COC)[C@@H](C)[C@H]2O)[C@H](O)[C@H]2O[C@H]3O[C@]21O[C@@]3(C)[C@@H]1CO1	17	125	4.6	40	–	–	–	–	–	–	Active	Active	inactive	Active	inactive	Active
